Measurements taken from ChEMBL document CHEMBL1201862, “PubChem BioAssay data set” (2004).
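Briefly, cells in 96-well plates were exposed to five compound concentrations for 48 h, and endpoints were estimated by linear interpolation. The concentration for 50% growth inhibition is given as GI50.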 Active and inactive are the calls of the source. Cut-off read from the data, not from the text of the source: active = GI50 up to about 1.1 µM and inactive = higher.

Experiments:
Assay in all cases: inhibition of tumour cell growth, NCI panel, 48 h
PC-3 = tested on: PC-3
A498 = tested on: A498
NCI-H460 = tested on: NCI-H460
NCI-H23 = tested on: NCI-H23
SK-MEL-28 = tested on: SK-MEL-28
786-0 = tested on: 786-0
M14 = tested on: M14
HCT-116 = tested on: HCT-116
SR = tested on: SR
SNB-75 = tested on: SNB-75
MOLT-4 = tested on: MOLT-4
TK-10 = tested on: TK-10
A549 = tested on: A549
SF-295 = tested on: SF-295
SK-MEL-5 = tested on: SK-MEL-5
LOX IMVI = tested on: LOX IMVI
UACC-62 = tested on: UACC-62
OVCAR-5 = tested on: OVCAR-5
SF-539 = tested on: SF-539

SMILES | GI50 (PC-3) | GI50 (A498) | GI50 (NCI-H460) | GI50 (NCI-H23) | GI50 (SK-MEL-28) | GI50 (786-0) | GI50 (M14) | GI50 (HCT-116) | GI50 (SR) | GI50 (SNB-75) | GI50 (MOLT-4) | GI50 (TK-10) | GI50 (A549) | GI50 (SF-295) | GI50 (SK-MEL-5) | GI50 (LOX IMVI) | GI50 (UACC-62) | GI50 (OVCAR-5) | GI50 (SF-539)
COc1ccc(/C(CC2OC(=O)c3ccccc32)=N\NC(=O)C[N+](C)(C)C)cc1 (centres undefined) | 47.8 µM (inactive) | 24.3 µM (inactive) | 24.6 µM (inactive) | 17.5 µM (inactive) | 19.7 µM (inactive) | 23.6 µM (inactive) | 38 µM (inactive) | 22.5 µM (inactive) | 18.2 µM (inactive) | 27.7 µM (inactive) | 23.7 µM (inactive) | 33.4 µM (inactive) | 36 µM (inactive) | 47.5 µM (inactive) | 22.5 µM (inactive) | 24.1 µM (inactive) | 15.4 µM (inactive) | > 100 µM (inactive) | 31.2 µM (inactive)
CCN(C(=O)N[C@@H](C)C(=O)N[C@@H](Cc1ccccc1)C(=O)OC)c1ccccc1 | > 100 µM (inactive) | > 100 µM (inactive) | 17.5 µM (inactive) | > 100 µM (inactive) | 33.2 µM (inactive) | 39 µM (inactive) | 34.4 µM (inactive) | > 100 µM (inactive) | 26 µM (inactive) | 54 µM (inactive) | > 100 µM (inactive) | > 100 µM (inactive) | > 100 µM (inactive) | 79.6 µM (inactive) | 95.9 µM (inactive) | 31.2 µM (inactive) | 31.6 µM (inactive) | > 100 µM (inactive) | 34.5 µM (inactive)
CN(C)CCNc1ccc2c(=O)n(CCN(C)C)c(=O)n3c4ccccc4c(=O)c1c23 | 0.114 µM (active) | 0.157 µM (active) | < 0.0113 µM (active) | 0.0505 µM (active) | 0.116 µM (active) | < 0.0198 µM (active) | 0.0836 µM (active) | 0.0269 µM (active) | < 0.01 µM (active) | 0.0513 µM (active) | < 0.01 µM (active) | 0.392 µM (active) | < 0.0216 µM (active) | < 0.0243 µM (active) | 0.0427 µM (active) | 0.0624 µM (active) | 0.0614 µM (active) | 0.318 µM (active) | 0.0321 µM (active)
COc1ccc(/C=C2\CCCC(CN(C)C)C2=O)cc1 (centres undefined) | 5.74 µM (inactive) | 16.8 µM (inactive) | 21.1 µM (inactive) | 7.71 µM (inactive) | 2.01 µM (inactive) | 1.79 µM (inactive) | 1.72 µM (inactive) | 1.63 µM (inactive) | 1.02 µM (active) | 7.45 µM (inactive) | 0.774 µM (active) | 3.36 µM (inactive) | 17.7 µM (inactive) | 19.1 µM (inactive) | 15.3 µM (inactive) | 1.34 µM (inactive) | 1.95 µM (inactive) | 9.08 µM (inactive) | 14.9 µM (inactive)
CC(Oc1ccccc1)C(=O)NNC(=O)OC(C)(C)C (centres undefined) | > 100 µM (inactive) | > 100 µM (inactive) | > 100 µM (inactive) | > 100 µM (inactive) | > 100 µM (inactive) | > 100 µM (inactive) | > 100 µM (inactive) | > 100 µM (inactive) | > 100 µM (inactive) | > 100 µM (inactive) | > 100 µM (inactive) | > 100 µM (inactive) | > 100 µM (inactive) | > 100 µM (inactive) | > 100 µM (inactive) | > 100 µM (inactive) | > 100 µM (inactive) | > 100 µM (inactive) | > 100 µM (inactive)
CC(C)[Si]1(C(C)C)OCC2OC(N3C(=O)NC(=O)C[C@@H]3C(O)c3ccccc3)CC2O[Si](C(C)C)(C(C)C)O1 (some centres undefined) | 4.3 µM (inactive) | 7.21 µM (inactive) | 3.03 µM (inactive) | 7.98 µM (inactive) | 4.51 µM (inactive) | 5.93 µM (inactive) | 12.7 µM (inactive) | 4.36 µM (inactive) | 1.68 µM (inactive) | 4.54 µM (inactive) | 2.31 µM (inactive) | 9.89 µM (inactive) | 11.2 µM (inactive) | 4.51 µM (inactive) | 11.3 µM (inactive) | 5.24 µM (inactive) | 8.91 µM (inactive) | 13.5 µM (inactive) | 17 µM (inactive)
